Laboratory results taken from US20260250290A1 (BRISTOL-MYERS SQUIBB COMPANY, priority 2023, published 2026).
Structures can show the parent of a compound that is named as a salt.

molecular target: T1, full length SGK1 (Homo sapiens, UniProt O00141); test: SGK1 inhibition Assay A (Caliper LabChip electrophoretic separation of fluorescent peptide substrate and phosphorylated product); assay type: biochemical; details: Assay A; 20 μM ATP, 40 min incubation; read-out: SGK1 IC50
T1 construct: 125 μM full length SGK1 (Life Technologies Part #PR7358A); purchased Life Technologies PR7358A
T1 sequence (O00141 1-431): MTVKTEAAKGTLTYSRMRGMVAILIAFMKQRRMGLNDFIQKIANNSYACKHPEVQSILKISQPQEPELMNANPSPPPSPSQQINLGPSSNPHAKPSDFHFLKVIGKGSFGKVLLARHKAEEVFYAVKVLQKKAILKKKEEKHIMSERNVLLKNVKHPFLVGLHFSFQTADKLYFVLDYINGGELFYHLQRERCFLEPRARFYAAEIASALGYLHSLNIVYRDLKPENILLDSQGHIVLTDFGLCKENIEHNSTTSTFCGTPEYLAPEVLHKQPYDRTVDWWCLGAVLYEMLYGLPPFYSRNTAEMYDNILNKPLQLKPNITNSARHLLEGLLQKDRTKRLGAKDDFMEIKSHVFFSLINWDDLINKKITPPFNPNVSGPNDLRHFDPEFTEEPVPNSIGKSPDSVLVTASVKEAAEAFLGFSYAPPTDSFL

Row | IC50 [nM] | Molecule
1 | 318 | CCOC1=C(C(=O)N[C@@H]2CCCN(c3cc(C4=CCN(C(C)=O)C4)n4ncnc(N)c34)C2)CN(CC(F)(F)C(F)(F)F)C1=O [Example 748, (R)-N-(1-(7-(1-acetyl-2,5-dihydro-1H-pyrrol-3-yl)-4-aminopyrrolo[2,1-f][1,2,4]triazin-5-yl)piperidin-3-yl)~4-ethoxy-5-oxo-1-(2,2,3,3,3-pentafluoropropyl)-2,5-dihydro-1H-pyrrole-3-carboxamide]
2 | 19 | CC(=O)Nc1cccc(C(=O)N[C@@H]2CCCN(c3cc(C4=CCN(C(C)=O)C4)n4ncnc(N)c34)C2)c1 [Example 447, (R)-3-acetamido-N-(1-(7-(1-acetyl-2,5-dihydro-1H-pyrrol-3-yl)-4-aminopyrrolo[2,1-f][1,2,4]triazin-5-yl)piperidin-3-yl)benzamide]
3 | 25 | N#Cc1ccc(-c2cc(N3CCC[C@@H](NC(=O)c4sc(Cl)cc4OC4CN(CC(F)F)C4)C3)c3c(N)ncnn23)cn1 [Example 383, (R)—N-(1-(4-amino-7-(6-cyanopyridin-3-yl)pyrrolo[2,1-f][1,2,4]triazin-5-yl)piperidin-3-yl)-5-chloro-3-((1-(2,2-difluoroethyl)azetidin-3-yl)oxy)thiophene-2-carboxamide]
4 | 108 | COC(=O)N1CC=C(c2cc(N3CCC[C@@H](NC(=O)c4sc(Cl)cc4OCC(=O)N4CCCC4)C3)c3c(N)ncnn23)C1 [Example 418, Methyl (R)-3-(4-amino-5-(3-(5-chloro-3-(2-oxo-2-(pyrrolidin-1-yl)ethoxy)thiophene-2-carboxamido)piperidin-1-yl)pyrrolo[2,1-f][1,2,4]triazin-7-yl)-2,5-dihydro-1H-pyrrole-1-carboxylate]
5 | 3 | CN(C)CCOc1cc(Cl)sc1C(=O)N[C@@H]1CCCN(c2cc(-c3ccc4cnoc4c3)n3ncnc(N)c23)C1 [Example 872, (R)—N-(1-(4-amino-7-(benzo[d]isoxazol-6-yl)pyrrolo[2,1-f][1,2,4]triazin-5-yl)piperidin-3-yl)-5-chloro-3-(2-(dimethylamino)ethoxy)thiophene-2-carboxamide]
6 | 4 | Cc1cc(-c2cc(N3CCC[C@@H](NC(=O)c4ccc(Cl)s4)C3)c3c(N)ncnn23)ccn1 [Example 132, N-[(3R)-1-[4-amino-7-(2-methylpyridin-4-yl)pyrrolo[2,1-f][1,2,4]triazin-5-yl]piperidin-3-yl)-5-chlorothiophene-2-carboxamide]
7 | 7 | CC(=O)N1CC=C(c2cc(N3CCC[C@@H](NC(=O)c4sc(-c5ccnc(C(F)F)c5)cc4OCCN(C)C)C3)c3c(N)ncnn23)C1 [Example 555, (R)-N-(1-(7-(1-acetyl-2,5-dihydro-1H-pyrrol-3-yl)-4-aminopyrrolo[2,1-f][1,2,4]triazin-5-yl)piperidin-3-yl)-5-(2-(difluoromethyl)pyridin-4-yl)-3-(2-(dimethylamino)ethoxy)thiophene-2-carboxamide]
8 | 10 | Nc1ncnn2c(C3=CCN(C(=O)C4CCOCC4)C3)cc(N3CCC[C@@H](NC(=O)c4ccc(Cl)s4)C3)c12 [Example 898, (R)-N-(1-(4-amino-7-(1-(tetrahydro-2H-pyran-4-carbony1)-2,5-dihydro-1H-pyrrol-3-yl)pyrrolo[2,1-f][1,2,4]triazin-5-y1)piperidin-3-y1)-5-chlorothiophene-2-carboxamide]
9 | 3 | CC(=O)NCC(=O)N1CC=C(c2cc(N3CCC[C@@H](NC(=O)c4ccc(Cl)s4)C3)c3c(N)ncnn23)C1 [Example 914, (R)—N-(1-(7-(1-(acetylglycyl)-2,5-dihydro-1H-pyrrol-3-yl)-4-aminopyrrolo[2,1-f][1,2,4]triazin-5-yl)piperidin-3-yl)-5-chlorothiophene-2-carboxamide]
10 | 21 | COC(=O)N1CC=C(c2cc(N3CCC[C@@H](NC(=O)c4sc(Cl)cc4OC4CN(CC(F)F)C4)C3)c3c(N)ncnn23)C1 [Example 385, Methyl (R)-3-(4-amino-5-(3-(5-chloro-3-((1-(2,2-difluoroethyl)azetidin-3-yl)oxy)thiophene-2-carboxamido)piperidin-1-yl)pyrrolo[2,1-f][1,2,4]triazin-7-yl)-2,5-dihydro-1H-pyrrole-1-carboxylate]
11 | 486 | COc1ccc(OC)c(C(=O)N[C@@H]2CCCN(c3cc(-c4ccc(S(C)(=O)=O)cc4)n4ncnc(N)c34)C2)c1 [Example 56, (R)-N-(1-(4-amino-7-(4-(methylsulfonyl)phenyl)pyrrolo[2,1-f][1,2,4]triazin-5-yl)piperidin-3-yl)-2,5-dimethoxybenzamide, TFA]
12 | 5 | CC(=O)N1CC=C(c2cc(N3CCC[C@@H](NC(=O)c4sc(Cl)cc4OC4CCN(C)CC4F)C3)c3c(N)ncnn23)C1 (stereo partly drawn) [Example 604, N-((R)-1-(7-(1-acetyl-2,5-dihydro-1H-pyrrol-3-y1)-4-aminopyrrolo[2,1-f][1,2,4]triazin-5-yl)piperidin-3-y1)-5-chloro-3-((3-fluoro-1-methylpiperidin-4-yl)oxy)thiophene-2-carboxamide]
13 | 450 | Cc1nc(C)c(C(=O)N[C@@H]2CCCN(c3cc(-c4cncnc4)n4ncnc(N)c34)C2)s1 [Example 511, (R)-N-(1-(4-amino-7-(pyrimidin-5-yl)pyrrolo[2,1-f][1,2,4]triazin-5-yl)piperidin-3-yl)-2,4-dimethylthiazole-5-carboxamide]
14 | 324 | CS(=O)(=O)c1ccc(-c2cc(N3CCC[C@@H](NC(=O)C4CCCCC4)C3)c3c(N)ncnn23)cc1 [Example 16, (R)-N-(1-(4-amino-7-(4-(methylsulfonyl)phenyl)pyrrolo[2,1-f][1,2,4]triazin-5-yl)piperidin-3-yl) cyclohexanecarboxamide]
15 | 9 | Cc1cc(C(=O)N[C@@H]2CCCN(c3cc(-c4ccc(S(C)(=O)=O)cc4)n4ncnc(N)c34)C2)ccn1 [Example 33, (R)-N-(1-(4-amino-7-(4-(methylsulfonyl)phenyl)pyrrolo[2,1-f][1,2,4]triazin-5-yl)piperidin-3-yl)-2-methylisonicotinamide]
16 | 5 | CC(=O)N1CC=C(c2cc(N3CCC[C@@H](NC(=O)c4sc(Cl)cc4OC4CC5(CNC5)C4)C3)c3c(N)ncnn23)C1 [Example 580]
17 | 157 | CS(=O)(=O)c1ccc(-c2cc(N3CCCC(NC(=O)c4ccc(Cl)c(Cl)c4)C3)c3c(N)ncnn23)cc1 (centres unmarked) [Example 6, N-(1-(4-amino-7-(4-(methylsulfonyl)phenyl)pyrrolo[2,1-f][1,2,4]triazin-5-yl)piperidin-3-yl)-3,4-dichlorobenzamide]
18 | 27 | CN(C)CCOc1cc(C(F)F)sc1C(=O)N[C@@H]1CCCN(c2cc(-c3cncnc3)n3ncnc(N)c23)C1 [Example 307, (R)-N-(1-(4-amino-7-(pyrimidin-5-yl)pyrrolo[2,1-f] [1,2,4]triazin-5-yl)piperidin-3-yl)-5-(difluoromethyl)-3-(2-(dimethylamino)ethoxy)thiophene-2-carboxamide]
19 | 200 | COCCNc1cccc(C(=O)N[C@@H]2CCCN(c3cc(C4=CCN(C(C)=O)C4)n4ncnc(N)c34)C2)n1 [Example 765, (R)-N-(1-(7-(1-acetyl-2,5-dihydro-1H-pyrrol-3-yl)-4-aminopyrrolo[2,1-f][1,2,4]triazin-5-yl)piperidin-3-yl)-6-((2-methoxyethyl)amino)picolinamide]
20 | 9 | NCCOc1cc(Cl)sc1C(=O)N[C@@H]1CCCN(c2cc(-c3cncnc3)n3ncnc(N)c23)C1 [Example 327, (R)—N-(1-(4-amino-7-(pyrimidin-5-yl)pyrrolo[2,1-f][1,2,4]triazin-5-yl)piperidin-3-yl)-3-(2-aminoethoxy)-5-chlorothiophene-2-carboxamide]
21 | 41 | CS(=O)(=O)c1ccc(-c2cc(N3CCC[C@@H](NC(=O)c4cn5ccccc5n4)C3)c3c(N)ncnn23)cc1 [Example 36]
22 | 15 | Nc1ncnn2c(C3=CCN(C(=O)c4nccs4)C3)cc(N3CCC[C@@H](NC(=O)c4ccc(Cl)s4)C3)c12 [Example 880, (R)—N-(1-(4-amino-7-(1-(thiazole-2-carbonyl)-2,5-dihydro-1H-pyrrol-3-yl)pyrrolo[2,1-f][1,2,4]triazin-5-yl)piperidin-3-yl)-5-chlorothiophene-2-carboxamide]
23 | 8 | CS(=O)(=O)c1ccc(-c2cc(N3CCC[C@@H](NC(=O)c4cccs4)C3)c3c(N)ncnn23)cc1 [Example 88, (R)-N-(1-(4-amino-7-(4-(methylsulfonyl)phenyl)pyrrolo[2,1-f][1,2,4]triazin-5-yl)piperidin-3-yl)thiophene-2-carboxamide, TFA]
24 | 299 | N#Cc1ccc(-c2cc(N3CCC[C@@H](NC(=O)c4sc(C(F)F)cc4C4CCNC4)C3)c3c(N)ncnn23)cn1 (stereo partly drawn) [Example 400, N-((R)-1-(4-amino-7-(6-cyanopyridin-3-yl)pyrrolo[2,1-f][1,2,4]triazin-5-yl)piperidin-3-yl)-5-(difluoromethyl)-3-(pyrrolidin-3-yl)thiophene-2-carboxamide]
25 | 24 | C#Cc1cccc(C(=O)N[C@@H]2CCCN(c3cc(-c4ccc(S(C)(=O)=O)cc4)n4ncnc(N)c34)C2)c1 [Example 34, (R)-N-(1-(4-amino-7-(4-(methylsulfonyl)phenyl)pyrrolo[2,1-f][1,2,4]triazin-5-yl)piperidin-3-yl)-3-ethynylbenzamide]

Row | Molecule | IC50 [nM]
26 | (R)-2-(1-(7-(1-acetyl-2,5- dihydro-1H-pyrrol-3-yl)- 4-aminopyrrolo[2,1- f][1,2,4]triazin-5- yl)piperidin-3-yl)-1,1,3,3- tetramethylguanidine [Example 724] | 15
